Data taken from US8969552B2, “Arylsulfonylmethyl or arylsulfonamide substituted aromatic compounds suitable for treating disorders that respond to modulation of the dopamine D3 receptor” (AbbVie Deutschland GmbH & Co. KG, priority 2004, dated 2015).

Legend:
[1] = molecular target: T1, human dopamine D2L receptors (long isoform) (Homo sapiens, UniProt P14416); test: Dopamine D2L receptor binding, [125I] iodospiperone displacement; conditions: membranes of HEK-293 cells stably expressing human D2L receptor; 0.01 nM [125I] iodospiperone; 25° C., 60 minutes; read-out: Ki(D2)*
T1 construct: expressed in transfected cells; membranes
Protocol: (§1) The substance to be tested was either dissolved in methanol/Chremophor® (BASF-AG) or in dimethyl sulfoxide and then diluted with water to the desired concentration.
(§2) Each assay mixture was run in triplicate.
The incubation buffer contained 50 mM tris, 120 mM NaCl, 5 mM KCl, 2 mM CaCl2, 2 mM MgCl2 and 0.1% bovine serum albumin. The buffer was adjusted to pH 7.4 with HCl.
(§3) Measurement and Analysis:
(§4) After having been incubated at 25° C. for 60 minutes, the assay mixtures were filtered through a Whatman GF/B glass fiber filter under vacuum using a cell collecting device. The filters were transferred to scintillation viols using a filter transfer system. After 4 ml of Ultima Gold® (Packard) have been added, the samples were shaken for one hour and the radioactivity was then counted in a Beta-Counter (Packard, Tricarb 2000 or 2200CA). The cpm values were converted into dpm using a standard quench series and the program belonging to the instrument.
(§5) The inhibition curves were analyzed by means of iterative nonlinear regression analysis using the Statistical Analysis System (SAS) which is similar to the “LIGAND” program described by Munson and Rodbard.
(§6) The results of the receptro binding studies are expressed as receptor binding constants Ki(D2) and Ki(D3), respectively, as herein before described, and given in table 2.

[2] = molecular target: T2, human dopamine D3 receptors (Homo sapiens, UniProt P35462); test: Dopamine D3 receptor binding, [125I]-iodosulpride displacement; conditions: for Ki: membranes of HEK-293 cells stably expressing human D3 receptor, 0.1 nM [125I]-iodosulpride, 25° C., 60 minutes; for Ki(D2)*/Ki(D3)*: selectivity ratio of receptor binding constants D2 versus D3
T2 construct: expressed in transfected cells; membranes
Protocol: as §1, §2
The incubation buffer contained 50 mM tris, 120 mM NaCl, 5 mM KCl, 2 mM CaCl2, 2 mM MgCl2 and 0.1% bovine serum albumin, 10 μM quinolone and 0.1% ascorbic acid (prepared fresh daily). The buffer was adjusted to pH 7.4 with HCl.
as §3, §4, §5, §6

T2 sequence (P35462 whole entry): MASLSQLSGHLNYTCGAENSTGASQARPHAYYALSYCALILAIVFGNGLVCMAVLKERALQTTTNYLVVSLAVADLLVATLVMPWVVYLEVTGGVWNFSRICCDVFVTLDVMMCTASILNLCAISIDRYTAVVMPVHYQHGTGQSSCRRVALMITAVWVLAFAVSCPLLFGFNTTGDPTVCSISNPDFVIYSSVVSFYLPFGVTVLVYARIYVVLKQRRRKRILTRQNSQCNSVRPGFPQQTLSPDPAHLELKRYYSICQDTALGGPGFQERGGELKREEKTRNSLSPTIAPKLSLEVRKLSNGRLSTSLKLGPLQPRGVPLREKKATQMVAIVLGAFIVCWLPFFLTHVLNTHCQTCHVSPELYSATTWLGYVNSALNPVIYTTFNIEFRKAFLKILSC
T1 sequence (P14416 whole entry, canonical isoform): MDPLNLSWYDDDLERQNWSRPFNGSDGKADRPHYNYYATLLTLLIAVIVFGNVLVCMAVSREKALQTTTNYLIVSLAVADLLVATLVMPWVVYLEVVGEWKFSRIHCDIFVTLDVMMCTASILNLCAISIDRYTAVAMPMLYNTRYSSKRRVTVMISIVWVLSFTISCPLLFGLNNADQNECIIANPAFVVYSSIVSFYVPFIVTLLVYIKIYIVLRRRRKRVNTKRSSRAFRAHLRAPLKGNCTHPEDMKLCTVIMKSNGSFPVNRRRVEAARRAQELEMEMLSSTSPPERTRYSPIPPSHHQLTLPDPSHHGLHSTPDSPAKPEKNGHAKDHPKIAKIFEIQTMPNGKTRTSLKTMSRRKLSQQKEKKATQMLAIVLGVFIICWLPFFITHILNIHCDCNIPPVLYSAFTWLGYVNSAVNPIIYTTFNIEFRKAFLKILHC

Ki [1] [nM] | Ki [2] [nM] | Ki(D2)*/Ki(D3)* [2] | SMILES
514 | 1.95 | 263 | CCCN[C@H]1CCc2cc(NS(=O)(=O)c3ccc([C@H](C)C(F)(F)F)cc3)ccc2C1 [Example 42, N—((S)-6-Propylamino-5,6,7,8-tetrahydro-naphthalen-2-yl)-4-((S)-2,2,2-trifluoro-1-methylethyl)-benzenesulfonamide]
3480 | 30.7 | 113 | CCCN[C@H]1CCc2cc(NS(=O)(=O)c3ccc(-c4ccon4)s3)ccc2C1 [Example 43, 5-Isoxazol-3-yl-thiophene-2-sulfonic acid ((S)-6-propylamino-5,6,7,8-tetrahydro-naphthalen-2-yl)-amide]
258 | 0.62 | 416 | CCCN[C@H]1CCc2cc(NS(=O)(=O)c3ccc(N4CC[C@@H](F)C4)cc3)ccc2C1 [Example 44, 4-((R)-3-Fluoro-pyrrolidin-1-yl)-N—((S)-6-propylamino-5,6,7,8-tetrahydro-naphthalen-2-yl)benzenesulfonamide]
1310 | 13.9 | 94 | CCCN[C@H]1CCc2cc(NS(=O)(=O)c3ccc(N4CCOCC4)cc3)ccc2C1 [Example 45, 4-Morpholin-4-yl-N—((S)-6-propylamino-5,6,7,8-tetrahydro-naphthalen-2-yl)benzenesulfonamide]
728 | 8.62 | 84 | CCCN[C@H]1CCc2cc(NS(=O)(=O)c3ccc(-n4cccn4)cc3)ccc2C1.Cl [Example 76, N—((S)-6-Propylamino-5,6,7,8-tetrahydro-naphthalen-2-yl)-4-pyrazol-1-ylbenzenesulfonamide, hydrochloride]
501 | 1.65 | 304 | CCCN[C@H]1CCc2cc(NS(=O)(=O)c3ccc(C(C)C(F)F)cc3)ccc2C1.Cl (stereo partly drawn) [Example 77, 4-(2,2-Difluoro-1-methyl-ethyl)-N—((S)-6-propylamino-5,6,7,8-tetrahydro-naphthalen-2-yl)benzenesulfonamide, hydrochloride]

Continued, molecule first:

SMILES | Ki [1] [nM] | Ki [2] [nM] | Ki(D2)*/Ki(D3)* [2]
CCCNC1CCc2cc(NS(=O)(=O)c3ccc(C(C)C)cc3)cnc2C1 (stereo not drawn) [Example 15, 4-Isopropyl-N-(7-propylamino-5,6,7,8-tetrahydro-quinolin-3-yl)-benzenesulfonamide] | 476 | 11.3 | 42
C=CCN1CCC[C@H]2c3ccc(NS(=O)(=O)c4ccc(C(C)C)cc4)cc3CC[C@@H]21 [Example 19, N-((4aS,10bS)-4-Allyl-1,2,3,4,4a,5,6,10b-octahydro-benzo[f]quinolin-8-yl)-4-isopropylbenzenesulfonamide] | 51 | 2.5 | 21
C=CCN1CCC[C@H]2c3cc(NS(=O)(=O)c4ccc(C(C)C)cc4)ccc3CC[C@@H]21 [Example 20, N-((4aS,10bS)-4-Allyl-1,2,3,4,4a,5,6,10b-octahydro-benzo[f]quinolin-9-yl)-4-isopropylbenzenesulfonamide] | 339 | 7.5 | 45
CCCN(CCC)[C@@H]1CCc2cc(NS(=O)(=O)c3ccc(C(C)C)cc3)ccc2C1.Cl [Example 29, N—((R)-6-Dipropylamino-5,6,7,8-tetrahydro-naphthalen-2-yl)-4-isopropyl-benzenesulfonamide, hydrochloride] | 1.39 | 0.37 | 4
CCCN(CCC)[C@H]1CCc2cc(NS(=O)(=O)c3ccc(C(C)C)cc3)ccc2C1.Cl [Example 30, N—((S)-6-Dipropylamino-5,6,7,8-tetrahydro-naphthalen-2-yl)-4-isopropylbenzenesulfonamide, hydrochloride] | 11.3 | 0.39 | 29
CCCNC1COc2cc(NS(=O)(=O)c3ccc(C(C)C)cc3)cnc2C1 (stereo not drawn) [Example 35, 4-Isopropyl-N-(3-propylamino-3,4-dihydro-2H-pyrano[3,2-b]pyridin-7-yl)benzenesulfonamide] | 12300 | 30.4 | 406
CCCN[C@H]1CCc2cc(NS(=O)(=O)c3ccc(-c4cnco4)s3)ccc2C1 [Example 38, 5-Oxazol-5-yl-thiophene-2-sulfonic acid ((S)-6-propylamino-5,6,7,8-tetrahydro-naphthalen-2-yl)-amide] | 727 | 4.81 | 151
CCCN[C@H]1CCc2cc(NS(=O)(=O)c3ccc([C@@H](C)C(F)(F)F)cc3)ccc2C1 [Example 41, N—((S)-6-Propylamino-5,6,7,8-tetrahydro-naphthalen-2-yl)-4-((R)-2,2,2-trifluoro-1-methylethyl)-benzenesulfonamide] | 1230 | 12.2 | 101
